{"source": "paper PMC6191125", "about": "“Peptidoglycan potentiates the membrane disrupting effect of the carboxyamidated form of DMS-DA6, a Gram-positive selective antimicrobial peptide isolated from Pachymedusa dacnicolor skin” (PLoS ONE, 2018)", "key": {"[1]": {"system": "B. subtilis CIP 52.65", "format": "cell-based, Bacillus subtilis subsp. subtilis", "from_the_text": "(§1) Gram-negative bacterial strains, Escherichia coli ATCC 8739, Escherichia coli ATCC 35218, Escherichia coli ML 35p, Escherichia coli K12, Pseudomonas aeruginosa ATCC 27853, and Gram-positive bacterial strains, Enterococcus faecalis ATCC29212, Kocuria rhizophila ATCC 9341, Staphylococcus aureus ATCC 6538, Staphylococcus aureus ATCC 29213, Staphylococcus aureus ST 1065, Staphylococcus epidermidis BM 3302, and Bacillus subtilis subsp. subtilis CIP 52.65, as well as two multiresistant strains (Staphylococcus aureus DAR 5829 (http://www.ncbi.nlm.nih.gov/bioproject/228435) and Enterococcus faecium BM 4147 [20] were cultured as described previously. The minimal inhibitory concentration (MIC) of the peptides was determined by the microtiter broth dilution method. Overnight precultures were subcultured in Luria Bertani (LB) medium at 37°C with vigorous shaking until mid-log phase (~2h) and diluted to 10^7 cfu/mL. Peptide solutions were prepared at different concentrations (from 2 to 500 μM) by successive 2-fold dilutions in water from 1 mM stock solutions. In each row of a 96-well nonbinding surface plate, 90 μL of bacteria were incubated with 10 μL of peptide solutions for 18 h at 37°C. The final peptide concentrations ranged from 0.2 to 100 μM. Cell growth was evaluated by visual inspection and absorbance at 600 nm to determine the lowest concentration of peptide that prevented cell growth. Wells were either opaque, indicating stationary phase growth, or transparent indicating no growth. The lowest concentration showing no visible growth was considered as the MIC. After measurement of the MIC, the bactericidal activity was determined by the addition of resazurin dye (30 μL, 0.01% w/v) to each well [22]. The plates were further incubated at 37°C for 18 h. Wells in which the dye turned pink indicated live bacteria, whereas wells in which the dye remained blue indicated dead bacteria. The minimal bactericidal concentration (MBC) is the lowest concentration with blue coloration (99.9% of bacteria were killed). Three to five independent assays were performed in triplicate. Positive controls correspond to medium plus 0.2% formaldehyde and negative controls to medium without peptide."}, "[2]": {"system": "A549 cells", "assay": "Cytotoxicity, trypan blue exclusion", "format": "cell-based", "details": "A549 human lung carcinoma cells, 2-hour incubation at 37°C, 5% CO2, concentrations as high as 100 μM; 3 independent experiments in triplicate", "procedure": "A549 cells (ATCC CCL-185), a human lung carcinoma cell line, were cultivated at 37°C, humid atmosphere and 5% CO2, in Petri dishes with DMEM Advanced medium (Gibco) supplemented with 5% of fetal bovine serum (FBS), 2 mM of glutamine, 100 U of penicillin and 50 μg/mL of streptomycin (Gibco). When the cells reached 80% confluence, the medium was discarded and the cells were washed with PBS 1×, before being treated with Trypsin 1× for 2 minutes to detach them form the culture dish. Cells were then resuspended in DMEM medium, seeded in a 48-well culture plate (500 000 cells/well), and either form of DMS-DA6 solubilized in PBS 1× was added and incubated for 2 hours at 37°C, 5% CO2. DMSO 30% was used as a positive control to induce cell death, and DMEM medium as negative control. After incubation, cell viability was assessed by trypan blue exclusion."}, "[3]": {"system": "Ps. aeruginosa ATCC 27853", "format": "cell-based, Pseudomonas aeruginosa", "details": "LB, 10^7 cfu/mL, 18 h at 37°C, peptide 0.2-100 μM, averaged over >=3 independent experiments in triplicate", "from_the_text": "as §1, with “Wells were either opaque, indicating stationary phase growth, or transparent indicating no growth. The lowest concentration showing no visible growth was considered as the MIC. After measurement of the MIC, the bactericidal activity was determined by the addition of resazurin dye (30 μL, 0.01% w/v) to each well [22]. The plates were further incubated at 37°C for 18 h. Wells in which the dye turned pink indicated live bacteria, whereas wells in which the dye remained blue indicated dead bacteria. The minimal bactericidal concentration (MBC) is the lowest concentration with blue coloration (99.9% of bacteria were killed). Three to five independent assays were performed in triplicate. Positive controls correspond to medium plus 0.2% formaldehyde and negative controls to medium without peptide.” left out"}, "[4]": {"system": "E. faecium BM 4147", "format": "cell-based, Enterococcus faecium", "details": "E. faecium BM 4147, multi-resistant strain", "from_the_text": "as §1"}, "[5]": {"system": "K. rhizophila ATCC 9341", "format": "cell-based, Kocuria rhizophila", "from_the_text": "as §1"}, "[6]": {"system": "E. faecalis ATCC 29212", "format": "cell-based, Enterococcus faecalis", "from_the_text": "as §1"}, "[7]": {"assay": "Circular dichroism, helical content with lipid vesicles", "format": "physicochemical", "details": "CD, 10 mM phosphate buffer pH 7.4, 20 μM peptide, peptide/lipid molar ratio 1/50", "from_the_text": "Lipid vesicles were formed using bacterial lipids extracted as described above or commercially available synthetic lipids. The lipids, 1-palmitoyl-2-oleoyl-sn-glycero-3-phosphocholine (POPC), 1-palmitoyl-2-oleoyl-sn-glycero-3-phospho-(1'-rac-glycerol) (POPG), 1,2-dimyristoyl-sn-glycero-3-phosphoglycerol (DMPG), 1.2-dioleyl-sn-glycero-3-phosphoglycerol (DOPG), and 1',3'-bis[1,2-dioleoyl-sn-glycero-3-phospho]-sn-glycerol (CL), were obtained from Avanti Polar Lipids, Inc (Alabaster, AL) and used without further purification. Desired mixtures of phospholipids were first dried in glass tubes under nitrogen and then maintained under a reduced pressure for at least 60 min. Lipid films were subsequently hydrated in PBS to yield a lipid concentration of 10 mg.mL^-1 for tryptophan fluorescence experiments, 1 mg.mL^-1 for DSC experiments, and in PB at 1 mM for CD experiments. The resulting dispersions of large multilamellar vesicles (MLVs) were subjected to 3 to 5 freeze-thaw cycles and then extruded 15 times through polycarbonate membranes (100 nm pore size, Whatman, Maidstone, UK) on an Avanti mini-extruder apparatus (Avanti Polar Lipids, Inc., Alabaster, AL) to generate large unilamellar vesicles (LUVs). Lipid vesicles were used either alone, or in combination with S. aureus peptidoglycan (PGN) (Sigma).\nThe CD spectra of the peptides were recorded as previously described. […]"}, "[8]": {"system": "S. aureus ST1065", "assay": "Bacterial membrane permeabilization (ONPG hydrolysis)", "format": "cell-based, Staphylococcus aureus", "details": "S. aureus ST 1065, 2.5 mM ONPG, absorbance at 420 nm; two independent experiments in triplicate", "procedure": "Membrane permeabilization was assessed by monitoring the hydrolysis of ortho-nitrophenyl β-D-galactopyranoside (ONPG) by the β-galactosidase enzyme, using the S. aureus ST1065 strain, specifically designed for membrane permeabilization assays, through detection of cytoplasmic β-galactosidase activity leakage. Bacteria were grown in LB to an absorbance of 0.5 at 600 nm, pelleted by centrifugation, and the pellets were washed twice with PBS. Pellets were then resuspended in 10% LB in PBS to an absorbance of 0.5 at 600 nm. Aliquots (15 μL) of bacterial suspension were mixed with 2.5 mM ONPG and incubated with various concentrations of peptide in a 96-well plate. The hydrolysis of ONPG was monitored by measuring the absorbance at 420 nm of released o-nitrophenol with a Fluostar Galaxy microplate reader (BMG LabTech, France)."}, "[9]": {"system": "E. coli ATCC 8739", "format": "cell-based, Escherichia coli", "from_the_text": "as §1"}, "[10]": {"system": "E. coli ML 35p", "format": "cell-based, Escherichia coli", "details": "LB, 10^7 cfu/mL, 18 h at 37°C, peptide 0.2-100 μM, averaged over >=3 independent experiments in triplicate", "from_the_text": "as §1"}, "[11]": {"system": "E. coli K12", "format": "cell-based, Escherichia coli", "details": "LB, 10^7 cfu/mL, 18 h at 37°C, peptide 0.2-100 μM, averaged over >=3 independent experiments in triplicate", "from_the_text": "as §1"}, "[12]": {"system": "E. coli ATCC 35218", "format": "cell-based, Escherichia coli", "details": "LB, 10^7 cfu/mL, 18 h at 37°C, peptide 0.2-100 μM, averaged over >=3 independent experiments in triplicate", "from_the_text": "as §1"}, "[13]": {"system": "S. aureus ATCC 29213", "format": "cell-based, Staphylococcus aureus", "from_the_text": "as §1"}, "[14]": {"system": "S. aureus ATCC 6538", "format": "cell-based, Staphylococcus aureus", "from_the_text": "as §1"}, "[15]": {"system": "S. aureus DAR 5829", "format": "cell-based, Staphylococcus aureus", "details": "S. aureus DAR 5829, multi-resistant strain", "from_the_text": "as §1"}, "[16]": {"system": "S. aureus ST 1065", "format": "cell-based, Staphylococcus aureus", "from_the_text": "as §1"}, "[17]": {"system": "S. epidermidis BM3302", "format": "cell-based, Staphylococcus epidermidis", "from_the_text": "as §1"}, "[18]": {"details": "LB, 10^7 cfu/mL, 18 h at 37°C, averaged over >=3 independent experiments in triplicate"}, "[19]": {"details": "resazurin dye added after MIC, further 18 h at 37°C, 99.9% killed, averaged over >=3 experiments in triplicate"}}, "note": "Residues, ends and D or L forms follow the SMILES beside them.", "data": [{"compound": "CC[C@H](C)[C@H](NC(=O)CNC(=O)[C@H](Cc1c[nH]c2ccccc12)NC(=O)[C@@H](NC(=O)CN)C(C)C)C(=O)N[C@@H](C)C(=O)N[C@@H](CCCCN)C(=O)N[C@H](C(=O)N[C@@H](C)C(=O)NCC(=O)N[C@@H](CCCCN)C(=O)N[C@H](C(=O)N[C@@H](CC(C)C)C(=O)NCC(=O)N[C@@H](CC(N)=O)C(=O)N[C@H](C(=O)N[C@@H](CC(C)C)C(=O)N1CCC[C@H]1C(=O)N[C@@H](Cc1c[nH]cn1)C(=O)N[C@H](C(=O)N[C@@H](Cc1ccccc1)C(=O)N[C@@H](CO)C(=O)N[C@@H](CO)C(=O)N[C@@H](CC(N)=O)C(=O)N[C@@H](CCC(N)=O)C(=O)N[C@@H](CO)C(N)=O)C(C)C)[C@@H](C)CC)C(C)C)[C@@H](C)CC", "note": "[DMS-DA6-NH2] (H-GVWGIAKIAGKVLGNILPHVFSSNQS-NH2)", "values": [{"measurement": "MIC", "setting": "[1]; [18]", "result": 6.25, "unit": "µM"}, {"measurement": "MBC", "setting": "[1]; [19]", "result": 6.25, "unit": "µM"}, {"measurement": "death of A549 cells (trypan blue exclusion)", "setting": "[2]", "result": "neither DMS-DA6-OH (net charge +2) nor DMS-DA6-NH2 (net charge +3) resulted in the death"}, {"measurement": "MIC", "setting": "[3]", "result": ">100", "unit": "µM"}, {"measurement": "MIC", "setting": "[4]; [18]", "result": 25, "unit": "µM"}, {"measurement": "MBC", "setting": "[4]; [19]", "result": 25, "unit": "µM"}, {"measurement": "MIC", "setting": "[5]; [18]", "result": 3.12, "unit": "µM"}, {"measurement": "MBC", "setting": "[5]; [19]", "result": 3.12, "unit": "µM"}, {"measurement": "MIC", "setting": "[6]; [18]", "result": 50, "unit": "µM"}, {"measurement": "MBC", "setting": "[6]; [19]", "result": 50, "unit": "µM"}, {"measurement": "intact peptide remaining", "result": "> 90", "unit": "%"}, {"measurement": "α-helix conformation", "setting": "[7]; POPG LUVs", "result": "about 80%"}, {"measurement": "α-helix conformation", "setting": "[7]; pure zwitterionic POPC LUVs", "result": 40, "unit": "%"}, {"measurement": "peptide concentration at which the maximal absorption intensity (ONPG hydrolysis) after 240 minutes was reached", "setting": "[8]", "result": 12.5, "unit": "µM"}, {"measurement": "MIC", "setting": "[9]; [18]", "result": 25, "unit": "µM"}, {"measurement": "MBC", "setting": "[9]; [19]", "result": 50, "unit": "µM"}, {"measurement": "MIC", "setting": "[10]", "result": ">100", "unit": "µM"}, {"measurement": "MIC", "setting": "[11]", "result": ">100", "unit": "µM"}, {"measurement": "MIC", "setting": "[12]", "result": ">100", "unit": "µM"}, {"measurement": "MIC", "setting": "[13]; [18]", "result": 3.12, "unit": "µM"}, {"measurement": "MBC", "setting": "[13]; [19]", "result": 6.25, "unit": "µM"}, {"measurement": "MIC", "setting": "[14]; [18]", "result": 6.25, "unit": "µM"}, {"measurement": "MBC", "setting": "[14]; [19]", "result": 6.25, "unit": "µM"}, {"measurement": "MIC", "setting": "[15]; [18]", "result": 25, "unit": "µM"}, {"measurement": "MBC", "setting": "[15]; [19]", "result": 50, "unit": "µM"}, {"measurement": "MIC", "setting": "[16]; [18]", "result": 12.5, "unit": "µM"}, {"measurement": "MBC", "setting": "[16]; [19]", "result": 12.5, "unit": "µM"}, {"measurement": "MIC", "setting": "[17]; [18]", "result": 12.5, "unit": "µM"}, {"measurement": "MBC", "setting": "[17]; [19]", "result": 12.5, "unit": "µM"}]}]}
